Results: patent US20030232994A1, “Bicyclic thiophene derivatives and combinatorial libraries thereof” (priority 2001, published 2003)

The compounds below were run on Streptococcus pyogenes (ATCC# 97-03 14289) (assay: Anti-microbial screen (growth inhibition, OD 570 nm)). Conditions: growth in Todd Hewitt Broth, plates read at 570 nm at 0 time and 4 hours, color corrected.
Type: cell-based
Procedure: Streptococcus pyogenes (ATCC# 97-03 14289) was grown in Todd Hewitt Broth (THB) (Difco Laboratories #0492-17-6) overnight until reaching an optical density of (OD=0.636 @ 570 nm) by reading 0.1 ml in a 96 well microtiter plate in a Molecular Devices Thermomax. This preparation was kept frozen as stocks in 30% v/v glycerol in 1.5 ml aliquots at −70^mC. until use. Prior to experiments, […] aliquots were thawed and diluted into 50 ml 2×THB. 60 ul of this dilution was added to 92 wells of microtiter plate. To three wells THB (200 ul) was added to serve as a blank and a sterility control. Test compounds in DMSO and appropriate concentrations of DMSO were added to Growth/Solvent Controls at 0 time. Plates were read at 0 time at 570 nm in the Molecular Devices plate reader to obtain compounds correction factors for insoluble or colored compounds. Plates were read again at 4 hours.
Percent inhibition is calculated with the following formulae: [drawing 4]
Color correct=O.D. 0 hr−Blank 0 hr)−(Solvent Control 0 hr−Blank 0 hr)
% Inhibition=100−O.D. test compound 4 hr−Blank 4 hr−color correct O.D. growth/solvent control 4 hr−Blank 4 hr

Point of comparison: `O=C(Nc1sc2c(c1C(=O)O)CCN(C(=O)c1ccc(F)c(F)c1)C2)c1ccc(Cl)cc1`, “% Inhibition” value 82.59%. Against it:
- CCCSc1ncccc1C(=O)N1CCc2c(sc(NC(=O)c3ccc(CCC)cc3)c2C(=O)O)C1 — lower, 79.09%
- O=C(Nc1sc2c(c1C(=O)O)CCN(C(=O)c1ccccc1C(F)(F)F)C2)c1ccc(Cl)cc1 — lower, 67.09%
- O=C(Nc1sc2c(c1C(=O)O)CCN(C(=O)c1cccc3ccccc13)C2)c1ccccc1Cl — lower, 65.9%
- COc1cccc(C(=O)Nc2sc3c(c2C(=O)O)CCN(C(=O)c2ccccc2C(F)(F)F)C3)c1 — lower, 73.59%
- CCCc1ccc(C(=O)Nc2sc3c(c2C(=O)O)CCN(C(=O)C(C)C)C3)cc1 — lower, 74.78%
- CCCc1ccc(C(=O)Nc2sc3c(c2C(=O)O)CCN(C(=O)c2ccc(Cl)cc2)C3)cc1 — lower, 64.18%
- CC(C)(C)c1ccc(C(=O)Nc2sc3c(c2C(=O)O)CCN(C(=O)C2CCCCC2)C3)cc1 — lower, 59.89%
- CCc1ccc(C(=O)Nc2sc3c(c2C(=O)O)CCN(C(=O)c2ccc(Cl)cc2OC)C3)cc1 — lower, 62.84%
- CCCc1ccc(C(=O)Nc2sc3c(c2C(=O)O)CCN(C(=O)CC(C)C)C3)cc1 — higher, 84.72%
- O=C(Nc1sc2c(c1C(=O)O)CCN(C(=O)C1CCC1)C2)c1ccc(Cl)cc1 — lower, 67.98%
- CCCc1ccc(C(=O)Nc2sc3c(c2C(=O)O)CCN(C(=O)c2ccccc2C(F)(F)F)C3)cc1 — lower, 64.51%
- CCOc1ncccc1C(=O)N1CCc2c(sc(NC(=O)c3ccc(Cl)cc3)c2C(=O)O)C1 — lower, 79.31%
- O=C(Nc1sc2c(c1C(=O)O)CCN(C(=O)c1ccc(F)cc1F)C2)c1ccccc1Cl — lower, 64.7%
- Cc1ccc(C(=O)N2CCc3c(sc(NC(=O)c4ccc(Cl)cc4)c3C(=O)O)C2)cn1 — lower, 64.41%
- CC(C)(C)c1ccc(C(=O)Nc2sc3c(c2C(=O)O)CCN(C(=O)c2ccoc2)C3)cc1 — lower, 61.2%
- O=C(Nc1sc2c(c1C(=O)O)CCN(C(=O)c1ccc(F)c(F)c1)C2)c1ccccc1Cl — lower, 61.26%
- O=C(Nc1sc2c(c1C(=O)O)CCN(C(=O)C1CCC1)C2)c1ccccc1 — higher, 89.4%
- CSc1ccccc1C(=O)N1CCc2c(sc(NC(=O)c3ccccc3Cl)c2C(=O)O)C1 — lower, 67.09%
- CC(C)(C)c1ccc(C(=O)Nc2sc3c(c2C(=O)O)CCN(C(=O)c2ccsc2)C3)cc1 — lower, 82.18%
- O=C(Nc1sc2c(c1C(=O)O)CCN(C(=O)c1ccc(C(F)(F)F)cc1)C2)c1ccccc1Cl — lower, 64.41%
- CCCSc1ncccc1C(=O)N1CCc2c(sc(NC(=O)c3ccc(Cl)cc3)c2C(=O)O)C1 — lower, 66.79%
- CC(C)(C)c1ccc(C(=O)Nc2sc3c(c2C(=O)O)CCN(C(=O)c2ccc(C(F)(F)F)cc2)C3)cc1 — lower, 59.57%
- O=C(CCC1CCCC1)Nc1sc2c(c1C(=O)O)CCN(C(=O)c1ccc(F)c(F)c1)C2 — lower, 61.45%
- O=C(Nc1sc2c(c1C(=O)O)CCN(C(=O)/C=C/c1ccccc1Cl)C2)c1c(F)cccc1F — lower, 77.66%
- Cc1ccccc1C(=O)N1CCc2c(sc(NC(=O)c3ccco3)c2C(=O)O)C1 — higher, 90.41%
- CCCc1ccc(C(=O)Nc2sc3c(c2C(=O)O)CCN(C(=O)c2cccnc2SC)C3)cc1 — higher, 86.05%
- O=C(Nc1sc2c(c1C(=O)O)CCN(C(=O)c1cccc(Cl)c1)C2)c1c(F)cccc1F — lower, 77.03%
- O=C(CCC1CCCC1)Nc1sc2c(c1C(=O)O)CCN(C(=O)c1ccc(Cl)cc1)C2 — lower, 66.09%
- Cc1c(F)cccc1C(=O)N1CCc2c(sc(NC(=O)CC(C)CC(C)(C)C)c2C(=O)O)C1 (stereo not shown) — lower, 77.56%
- Cc1ccc(C)c(CC(=O)N2CCc3c(sc(NC(=O)c4ccccc4)c3C(=O)O)C2)c1 — higher, 86.14%
- CC(C)(C)c1ccc(C(=O)Nc2sc3c(c2C(=O)O)CCN(C(=O)c2ccc(F)c(F)c2)C3)cc1 — lower, 75.95%
- COc1ccccc1C(=O)Nc1sc2c(c1C(=O)O)CCN(C(=O)CCc1ccc(F)c(F)c1)C2 — lower, 60.86%
- CCc1ccc(C(=O)Nc2sc3c(c2C(=O)O)CCN(C(=O)c2ccc(C(F)(F)F)cc2)C3)cc1 — lower, 63.17%
- CC(C)CC(=O)N1CCc2c(sc(NC(=O)c3ccccc3)c2C(=O)O)C1 — higher, 98.72%
- Cn1cc(C(=O)N2CCc3c(sc(NC(=O)c4ccccc4)c3C(=O)O)C2)c2ccccc21 — higher, 87.54%
- CCC(C(=O)Nc1sc2c(c1C(=O)O)CCN(C(=O)c1ccccc1SC)C2)c1ccccc1 (stereo not shown) — lower, 68.58%
- CC(C)(C)c1ccc(C(=O)Nc2sc3c(c2C(=O)O)CCN(C(=O)CCc2ccc(F)c(F)c2)C3)cc1 — lower, 69.4%
- COc1ccc(OC)c(C(=O)N2CCc3c(sc(NC(=O)CC(C)CC(C)(C)C)c3C(=O)O)C2)c1 (stereo not shown) — lower, 68.17%
- CCCc1ccc(C(=O)Nc2sc3c(c2C(=O)O)CCN(C(=O)C2CCC2)C3)cc1 — higher, 95.65%
- O=C(Nc1sc2c(c1C(=O)O)CCN(C(=O)C1CCC1)C2)c1ccc2ccccc2c1 — lower, 59.86%
- O=C(Nc1sc2c(c1C(=O)O)CCN(C(=O)c1ccc(Cl)cc1)C2)c1ccccc1 — higher, 87.07%
- O=C(Nc1sc2c(c1C(=O)O)CCN(C(=O)c1cccc(Cl)c1)C2)c1ccccc1 — higher, 94.99%
- COc1ccc(OC)c(C(=O)N2CCc3c(sc(NC(=O)c4ccc(C(C)(C)C)cc4)c3C(=O)O)C2)c1 — lower, 77.92%
- CSc1ccccc1C(=O)N1CCc2c(sc(NC(=O)c3ccccc3)c2C(=O)O)C1 — lower, 79.15%
- CCCSc1ncccc1C(=O)N1CCc2c(sc(NC(=O)c3cccc(OC)c3)c2C(=O)O)C1 — higher, 88.5%
- COc1ccc(OC)c(C(=O)N2CCc3c(sc(NC(=O)c4ccc5ccccc5c4)c3C(=O)O)C2)c1 — higher, 86.36%
- O=C(Nc1sc2c(c1C(=O)O)CCN(C(=O)c1ccsc1)C2)c1ccco1 — lower, 66.72%
- O=C(Nc1sc2c(c1C(=O)O)CCN(C(=O)CCc1ccc(F)c(F)c1)C2)c1ccc(Cl)cc1 — the same, 82.59%
- Cc1c(F)cccc1C(=O)N1CCc2c(sc(NC(=O)C3CCCCC3)c2C(=O)O)C1 — lower, 63.92%
- CCCSc1ncccc1C(=O)N1CCc2c(sc(NC(=O)c3ccc(C(C)(C)C)cc3)c2C(=O)O)C1 — higher, 83.49%
- CC(C)C(=O)N1CCc2c(sc(NC(=O)c3ccccc3)c2C(=O)O)C1 — higher, 90.8%
- CCCc1ccc(C(=O)Nc2sc3c(c2C(=O)O)CCN(C(=O)c2ccc(F)cc2F)C3)cc1 — higher, 88.03%
- CC(C)(C)c1ccc(C(=O)Nc2sc3c(c2C(=O)O)CCN(C(=O)c2ccccc2C(F)(F)F)C3)cc1 — lower, 80.87%
- Cc1ccc(C(=O)N2CCc3c(sc(NC(=O)c4ccc(C(C)(C)C)cc4)c3C(=O)O)C2)cn1 — lower, 74.64%
- CC(C)(C)c1ccc(C(=O)Nc2sc3c(c2C(=O)O)CCN(C(=O)c2ccc(Cl)cc2)C3)cc1 — lower, 68.41%
- CCc1ccc(C(=O)Nc2sc3c(c2C(=O)O)CCN(C(=O)c2ccccc2C(F)(F)F)C3)cc1 — higher, 86.11%
- O=C(Nc1sc2c(c1C(=O)O)CCN(C(=O)c1ccsc1)C2)c1ccccc1Cl — higher, 85.87%
- Cc1ccc(C(=O)N2CCc3c(sc(NC(=O)c4ccccc4Cl)c3C(=O)O)C2)cn1 — lower, 69.18%
- O=C(Nc1sc2c(c1C(=O)O)CCN(C(=O)c1ccccc1Cl)C2)c1ccc(Cl)cc1 — lower, 62.91%
- COc1cc(Cl)ccc1C(=O)N1CCc2c(sc(NC(=O)c3c(F)cccc3F)c2C(=O)O)C1 — lower, 59.98%
- CCCc1ccc(C(=O)Nc2sc3c(c2C(=O)O)CCN(C(=O)c2ccccc2SC)C3)cc1 — higher, 90.02%
- CCCc1ccc(C(=O)Nc2sc3c(c2C(=O)O)CCN(C(=O)c2cccc(OC)c2OC)C3)cc1 — lower, 76.44%
- CSc1ncccc1C(=O)N1CCc2c(sc(NC(=O)c3ccco3)c2C(=O)O)C1 — lower, 62.35%
- O=C(CCC1CCCC1)Nc1sc2c(c1C(=O)O)CCN(C(=O)/C=C/c1ccc(Cl)cc1)C2 — lower, 67.51%
- CC(CC(=O)Nc1sc2c(c1C(=O)O)CCN(C(=O)c1ccc(Cl)cc1)C2)CC(C)(C)C (stereo not shown) — lower, 63.48%
- CCc1ccc(C(=O)Nc2sc3c(c2C(=O)O)CCN(C(=O)c2cccnc2SC)C3)cc1 — lower, 63.83%
- Cn1cc(C(=O)N2CCc3c(sc(NC(=O)CCC4CCCC4)c3C(=O)O)C2)c2ccccc21 — lower, 65.02%
- CC(C)C(=O)N1CCc2c(sc(NC(=O)c3ccc(C(C)(C)C)cc3)c2C(=O)O)C1 — lower, 77.26%
- COc1ccc(OC)c(C(=O)N2CCc3c(sc(NC(=O)c4ccccc4)c3C(=O)O)C2)c1 — lower, 73.56%
